Patent publication US20110070232A1, “Combination Therapy with an Antitumor Alkaloid” (Pharma Mar, S.A., priority 2008, published 2011)
Converted amounts (≈) assume the structure as drawn. Read-outs that look alike come from different tables or passages of the source.

Key:
[1] = test system: AGS human gastric carcinoma cell line; assay: IC50 determination, MTS assay, 72 h (Example 1); format: cell-based; settings: 72 hours of drug exposure
Protocol: (§1) The human gastric carcinoma cell lines selected for this assay were the following: Hs746T, HGC-27, and AGS cell lines. Hs746T and AGS cell lines were grown in Dulbecco's modified Eagle's medium (DMEM) supplemented with 10% Fetal Bovine Serum (FBS), 1.5 g/L sodium bicarbonate, 4.5 g/L glucose and 4 mM L-glutamine. HGC-27 cell line was grown in Iscove's modified Dulbecco's medium (IMDM) supplemented with 20% FBS and 2 mM L-glutamine.
(§2) The day before plating, the cells were fed with fresh, complete growth media. On the harvest (plating) day, cells were counted by Trypan Blue exclusion staining method.
(§3) Cells were harvested and seeded in 96 well microtiter plates at 10,000 cells density in 150 μL of media and incubated for 24 hours to allow the cells to attach before drug addition. To collect reference data, the MTS assay was done on untreated cells at time 0 (after incubation of cells for 24 hours).
(§4) The cytotoxic effect was measured by the MTS Assay (Tetrazolium), which is a colorimetric method for determining the number of viable cells. After the incubation period (24 hours for the Day 0 plate and 72 hours for the Test and Control plates), 25 μL of MTS+PMS solution was added to each microtiter well and incubated for 4 hours at 37° C. Plates were then removed from incubator and placed on plate shaker for 5 minutes (covered with aluminum foil for protection from light). Optical densities were read at 490 nm on spectrophotometer plate reader.
(§5) IC50 values were calculated from an average of two to four assays for each of the test agents.

[2] = test system: HGC-27 human gastric carcinoma cell line; assay: IC50 determination, MTS assay, 72 h (Example 1); format: cell-based; settings: 72 hours of drug exposure
Protocol: as §1, §2, §3, §4, §5

[3] = test system: Hs746T human gastric carcinoma cell line; assay: IC50 determination, MTS assay, 72 h (Example 1); format: cell-based; settings: 72 hours of drug exposure
Protocol: as §1, §2, §3, §4, §5

CaLu-6 tumors = format: in vivo, mice
From the text: (§6) Female athymic nude mice (Harlan Sprague Dawley, Madison, Wis.) were utilized for all experiments. Animals were housed in ventilated rack caging with food and water ad libitum. The mice were acclimated for at least 5 days prior to tumor implantation.
The tumor model used in this study was CaLu-6 cell line which is a human lung cell line obtained from the ATCC (Manassas, Va.). […] Cells from in vitro passage 10 were those implanted SC into study mice.
Treatments were initiated on DPI 9.
(§7) Tumor size measurements were recorded 2-3 times/week from the treatment initiation until the termination of the study.
(§8) Mean, standard deviation and standard error of the mean were determined for tumor volume for all animal groups at all assessments. Student's t test was performed on tumor volumes at each measurement day, including at the end of the study, to determine whether there were any statistically significant differences between combination treatment groups and single monotherapy treatment groups.

NCI-H460 tumors = format: in vivo, mice
From the text: as §6
The tumor model used in this study was NCI-H460 cell line which is a human lung cell line obtained from the ATCC (Manassas, Va.). […] Cells from in vitro passage 16 were those implanted SC into study mice.
Treatments were initiated on DPI 8.
as §7, §8

H-Meso-1 tumors = format: in vivo, mice; settings: G4 pemetrexed 100 mg/kg/day IP
Protocol: as §6
The tumor model used in this study was H-Meso-1 cell line which is a human mesothelioma cell line obtained from the DTP, DCTD tumor repository. […] Cells were implanted SC into study mice using a 1 ml syringe with a 13G trocar: 5×10^6 cells/mouse in 0.2 ml 50% Matrigel/50% RPMI medium of H-Meso-1 without serum or antibiotics. Bacterial culture was taken on cells used to implant the study.
Treatments were initiated on DPI 6.
as §7, §8

[4] = day 13, G3 pemetrexed 125 mg/kg/day IP
[5] = day 13, G4 pemetrexed 100 mg/kg/day IP
[6] = day 16, G3 pemetrexed 125 mg/kg/day IP
[7] = day 16, G4 pemetrexed 100 mg/kg/day IP
[8] = day 20, G3 pemetrexed 125 mg/kg/day IP
[9] = day 20, G4 pemetrexed 100 mg/kg/day IP
[10] = day 23, G3 pemetrexed 125 mg/kg/day IP
[11] = day 23, G4 pemetrexed 100 mg/kg/day IP

## CCc1c2c(nc3ccc(O)cc13)-c1cc3c(c(=O)n1C2)COC(=O)[C@]3(O)CC [SN38, 7-ethyl-10-hydroxycamptothecin]
[1]
  IC50: 0.00549 µg/mL (≈ 0.014 µM)
[2]
  IC50: 0.246 µg/mL (≈ 0.627 µM)
[3]
  IC50: 0.0582 µg/mL (≈ 0.148 µM)

## Nc1nc2[nH]cc(CCc3ccc(C(=O)N[C@@H](CCC(=O)O)C(=O)O)cc3)c2c(=O)[nH]1 [pemetrexed]
CaLu-6 tumors; G3 pemetrexed 125 mg/kg/day IP
  % T/C on day 9: 99.6%
  % T/C on day 16: 86.6%
  % T/C on day 20: 104.8%
  % T/C on day 23: 98.7%
  % T/C on day 27: 87.9%
  % T/C on day 30: 90.0%
  % T/C on day 34: 89.1%
  % T/C on day 42: 94.2%
CaLu-6 tumors; G4 pemetrexed 100 mg/kg/day IP
  % T/C on day 9: 103.4%
  % T/C on day 13: 126.5%
  % T/C on day 16: 103.5%
  % T/C on day 20: 120.6%
  % T/C on day 23: 111.5%
  % T/C on day 27: 101.8%
  % T/C on day 30: 105.8%
  % T/C on day 34: 102.2%
  % T/C on day 42: 100.5%
CaLu-6 tumors; day 9, G3 pemetrexed 125 mg/kg/day IP
  % Inhibition: 0.4%
CaLu-6 tumors; day 9, G4 pemetrexed 100 mg/kg/day IP
  % Inhibition: −3.4%
CaLu-6 tumors; [4]
  % Inhibition: −16.6%
CaLu-6 tumors; [5]
  % Inhibition: −26.5%
CaLu-6 tumors; [6]
  % Inhibition: 13.4%
CaLu-6 tumors; [7]
  % Inhibition: −3.5%
CaLu-6 tumors; [8]
  % Inhibition: −4.8%
CaLu-6 tumors; [9]
  % Inhibition: −20.6%
CaLu-6 tumors; [10]
  % Inhibition: 1.3%
CaLu-6 tumors; [11]
  % Inhibition: −11.5%
CaLu-6 tumors; day 27, G3 pemetrexed 125 mg/kg/day IP
  % Inhibition: 12.1%
CaLu-6 tumors; day 27, G4 pemetrexed 100 mg/kg/day IP
  % Inhibition: −1.8%
CaLu-6 tumors; day 30, G3 pemetrexed 125 mg/kg/day IP
  % Inhibition: 10.0%
CaLu-6 tumors; day 30, G4 pemetrexed 100 mg/kg/day IP
  % Inhibition: −5.8%
CaLu-6 tumors; day 34, G3 pemetrexed 125 mg/kg/day IP
  % Inhibition: 10.9%
CaLu-6 tumors; day 34, G4 pemetrexed 100 mg/kg/day IP
  % Inhibition: −2.2%
CaLu-6 tumors; day 42, G3 pemetrexed 125 mg/kg/day IP
  % Inhibition: 5.8%
CaLu-6 tumors; day 42, G4 pemetrexed 100 mg/kg/day IP
  % Inhibition: −0.5%
NCI-H460 tumors; G3 pemetrexed 125 mg/kg/day IP
  % T/C on day 8: 102.6%
  % T/C on day 10: 119.0%
  % T/C on day 13: 67.5%
  % T/C on day 16: 71.0%
  % T/C on day 20: 70.4%
  % T/C on day 23: 85.4%
  % T/C on day 28: 72.9%
  % T/C on day 31: 82.6%
NCI-H460 tumors; G4 pemetrexed 100 mg/kg/day IP
  % T/C on day 8: 103.0%
  % T/C on day 10: 107.3%
  % T/C on day 13: 75.7%
  % T/C on day 16: 72.4%
  % T/C on day 20: 72.9%
  % T/C on day 23: 86.3%
  % T/C on day 28: 76.8%
  % T/C on day 31: 96.9%
NCI-H460 tumors; day 8, G3 pemetrexed 125 mg/kg/day IP
  % Inhibition: −2.6%
NCI-H460 tumors; day 8, G4 pemetrexed 100 mg/kg/day IP
  % Inhibition: −3.0%
NCI-H460 tumors; day 10, G3 pemetrexed 125 mg/kg/day IP
  % Inhibition: −19.0%
NCI-H460 tumors; day 10, G4 pemetrexed 100 mg/kg/day IP
  % Inhibition: −7.3%
NCI-H460 tumors; [4]
  % Inhibition: 32.5%
NCI-H460 tumors; [5]
  % Inhibition: 24.3%
NCI-H460 tumors; [6]
  % Inhibition: 29.0%
NCI-H460 tumors; [7]
  % Inhibition: 27.6%
NCI-H460 tumors; [8]
  % Inhibition: 29.6%
NCI-H460 tumors; [9]
  % Inhibition: 27.1%
NCI-H460 tumors; [10]
  % Inhibition: 14.6%
NCI-H460 tumors; [11]
  % Inhibition: 13.7%
NCI-H460 tumors; day 28, G3 pemetrexed 125 mg/kg/day IP
  % Inhibition: 27.1%
NCI-H460 tumors; day 28, G4 pemetrexed 100 mg/kg/day IP
  % Inhibition: 23.2%
NCI-H460 tumors; day 31, G3 pemetrexed 125 mg/kg/day IP
  % Inhibition: 17.4%
NCI-H460 tumors; day 31, G4 pemetrexed 100 mg/kg/day IP
  % Inhibition: 3.1%
H-Meso-1 tumors
  % T/C on day 6: 102.1%
  % T/C on day 7: 100.2%
  % T/C on day 9: 109.0%
  % T/C on day 12: 105.7%
  % T/C on day 14: 124.2%
  % T/C on day 16: 128.6%
  % T/C on day 19: 110.4%
  % T/C on day 22: 100.8%
  % T/C on day 26: 122.9%
H-Meso-1 tumors; day 6
  % Inhibition: −2.1%
H-Meso-1 tumors; day 7
  % Inhibition: −0.2%
H-Meso-1 tumors; day 9
  % Inhibition: −9.0%
H-Meso-1 tumors; day 12
  % Inhibition: −5.7%
H-Meso-1 tumors; day 14
  % Inhibition: −24.2%
H-Meso-1 tumors; day 16
  % Inhibition: −28.6%
H-Meso-1 tumors; day 19
  % Inhibition: −10.4%
H-Meso-1 tumors; day 22
  % Inhibition: −0.8%
H-Meso-1 tumors; day 26
  % Inhibition: −22.9%
H-Meso-1 tumors; day 29
  % Inhibition: −22.4%
